Measurements taken from publication PMC7733455, “A novel multistage antiplasmodial inhibitor targeting Plasmodium falciparum histone deacetylase 1” (Cell Discovery, 2020).

Key:
P. falciparum 3D7 = assay: 3-day SYBR Green I growth inhibition assay (GIA), strain 3D7; assay type: cell-based, Plasmodium falciparum; details: 3-day SYBR Green I GIA, drug-sensitive strain 3D7; read-out: Antiplasmodial activity EC50, 3D7
Method: (§1) A 3-day SYBR Green I inhibition EC50 assay was performed as described previously. Briefly, highly synchronized ring-stage parasites by 5% sorbitol (1% parasitemia and 2% hematocrit) were incubated in a 96-well plate with compounds in a total volume of 200 μL. […] The parasites were cultured for 72 h before SYBR Green I staining as described above. The EC50 was calculated by GraphPad Prism. DHA was used as a positive control, and the final concentration of DMSO was 1%.

P. falciparum Dd2 = assay: 3-day SYBR Green I GIA, multidrug-resistant strain Dd2; assay type: cell-based, Plasmodium falciparum; details: 3-day SYBR Green I GIA, multidrug-resistant strain Dd2; read-out: Antiplasmodial activity EC50, Dd2
Method: as §1

HepG2 cells = assay: In vitro cytotoxicity analysis (CellTiter-Glo), HepG2; details: for EC50: read-out: Cytotoxicity EC50, HepG2, 72 h, CellTiter-Glo
Method: (§2) In all, 1% DMSO was used as a negative control. The inhibition of each drug was normalized to that of the DMSO control. EC50 was calculated by GraphPad Prism. Three independent assays with two technical replicates each time were conducted in this experiment.

293T cells = assay: In vitro cytotoxicity analysis (CellTiter-Glo), 293T; details: for EC50: read-out: Cytotoxicity EC50, 293T, 72 h, CellTiter-Glo
Method: as §2

SMILES | EC50 (P. falciparum 3D7) | EC50 (P. falciparum Dd2) | Selectivity index for HepG2 (EC50 HepG2/EC50 3D7) (HepG2 cells) | EC50 (HepG2 cells) | Selectivity index for 293T (EC50 293T/EC50 3D7) (293T cells) | EC50 (293T cells)
Cl.Cn1cc(CN2CCN(c3ncc(C(=O)NO)cn3)CC2)c2ccccc21 [JX21003] | 10.9 ± 0.8 nM | 15.3 ± 0.4 nM | 4 | 44 ± 7 nM | 4 | 47 ± 21 nM
Cl.Cn1cc(CNC2CCN(c3ncc(C(=O)NO)cn3)CC2)c2ccccc21 [JX21004] | 32.9 ± 0.9 nM | 61 ± 0.4 nM | 9 | 294 ± 57 nM | 16 | 519 ± 112 nM
CN(Cc1cn(C)c2ccccc12)C1CCN(c2ncc(C(=O)NO)cn2)CC1.Cl [JX21005] | 73.6 ± 3.5 nM | 108 ± 5.6 nM | 9 | 643 ± 36 nM | 27 | 1980 ± 407 nM
Cl.Cn1cc(CN2CCC(CNc3ncc(C(=O)NO)cn3)CC2)c2ccccc21 [JX21008] | 13.1 ± 0.6 nM | 23.6 ± 0.4 nM | 52 | 688 ± 10 nM | 19 | 253 ± 89 nM
Cl.Cn1cc(CN2CCC3(CC2)CCN(c2ncc(C(=O)NO)cn2)CC3)c2ccccc21 [JX21010] | 23.4 ± 2.4 nM | 31.1 ± 4.6 nM | 39 | 904 ± 18 nM | 94 | 2210 ± 226 nM
Cl.Cn1cc(CN2CCC3(CC2)CN(c2ncc(C(=O)NO)cn2)C3)c2ccccc21 [JX21013] | 79.2 ± 2.4 nM | 44 ± 10 nM | > 126 | > 10000 nM | > 126 | > 10000 nM
Cl.Cn1cc(CN2CCC3(CCCN3c3ncc(C(=O)NO)cn3)CC2)c2ccccc21 [JX21019] | 45.2 ± 1.2 nM | 38.7 ± 0.6 nM | 19 | 875 ± 70 nM | 22 | 1000 ± 208 nM
Cl.Cn1cc(CNC2CCC(Nc3ncc(C(=O)NO)cn3)CC2)c2ccccc21 (stereo not shown) [JX21022] | 151 ± 2.7 nM | 125 ± 4.5 nM | > 66 | > 10000 nM | > 66 | > 10000 nM
Cl.Cn1cc(CN2CCC3(CCN(c4ncc(C(=O)NO)cn4)C3)C2)c2ccc(Cl)cc21 (stereo not shown) [JX21102] | 4.2 ± 0.7 nM | 2.4 ± 0.2 nM | 123 | 514 ± 22 nM |  | 1670 ± 110 nM
Cl.O=C(NO)c1cnc(N2CCC3(CCN(Cc4ccccc4)C3)C2)nc1 (stereo not shown) [JX21105] | 17.8 ± 0.5 nM | 28.6 ± 1.8 nM | 68 | 1200 ± 68 nM | 101 | 1790 ± 37 nM
Cl.Cn1cc(CN2CCC3(CCN(c4ncc(C(=O)NO)cn4)C3)C2)c2ccc(F)cc21 (stereo not shown) [JX21106] | 2 ± 0.9 nM | 3.6 ± 0.08 nM | 88 | 178 ± 4 nM | 198 | 402 ± 96 nM
Cl.O=C(NO)c1cnc(N2CCC3(CCN(Cc4cccs4)C3)C2)nc1 (stereo not shown) [JX21110] | 49.7 ± 1.1 nM | 35.4 ± 1.3 nM | 34 | 1690 ± 163 nM | 91 | 4540 ± 323 nM
Cl.O=C(NO)c1cnc(N2CCC3(CCN(Cc4ccco4)C3)C2)nc1 (stereo not shown) [JX21111] | 45.5 ± 3.3 nM | 34 ± 2.5 nM | 24 | 1100 ± 18 nM | 50 | 2260 ± 286 nM
Cl.O=C(NO)c1cnc(N2CCC3(CCN(CC4CCCCC4)C3)C2)nc1 (stereo not shown) [JX21112] | 40.4 ± 4.1 nM | 28.3 ± 3.8 nM | 62 | 2490 ± 520 nM | 15 | 607 ± 42 nM
Cl.O=C(NO)c1cnc(N2CCC3(CCN(Cc4coc5ccccc45)C3)C2)nc1 (stereo not shown) [JX21113] | 67.5 ± 5.3 nM | 112 ± 13.1 nM | > 148 | > 10000 nM | 45 | 3020 ± 67 nM
Cl.O=C(NO)c1cnc(N2CCC3(CCN(Cc4ccnc5ccccc45)C3)C2)nc1 (stereo not shown) [JX21114] | 45.9 ± 11.8 nM | 76.2 ± 9.9 nM | 86 | 3930 ± 537 nM | 41 | 1859 ± 12 nM
Cl.O=C(NO)c1cnc(N2CCC3(CCN(Cc4ccc(-c5ccccc5)cc4)C3)C2)nc1 (stereo not shown) [JX21116] | 21.7 ± 0.2 nM | 33.9 ± 0.3 nM | 137 | 2960 ± 152 nM | 111 | 2410 ± 118 nM
Cl.O=C(NO)c1cnc(N2CCC3(CCN(Cc4cccnc4)C3)C2)nc1 (stereo not shown) [JX21119] | 53.3 ± 0.5 nM | 39 ± 4 nM | 120 | 6420 ± 540 nM | 131 | 6998 ± 57 nM
Cl.O=C(NO)c1cnc(N2CCC3(CCN(Cc4ccsc4)C3)C2)nc1 (stereo not shown) [JX21120] | 18.6 ± 3.9 nM | 23.2 ± 1.2 nM | 114 | 2120 ± 165 nM | 211 | 3930 ± 374 nM
Cl.O=C(NO)c1cnc(N2CCC3(CCN(CC4CCCC4)C3)C2)nc1 (stereo not shown) [JX21121] | 92.5 ± 11.3 nM | 61.6 ± 4.8 nM | > 108 | > 10000 nM | > 108 | > 10000 nM
Cl.O=C(NO)c1cnc(N2CCC3(CCN(Cc4cnc5ccccn45)C3)C2)nc1 (stereo not shown) [JX21122] | 72.9 ± 10 nM | 74.4 ± 27.4 nM | > 137 | > 10000 nM | > 137 | > 10000 nM
Cl.O=C(NO)c1cnc(N2CCC3(CCN(Cc4cccc5ccccc45)C3)C2)nc1 (stereo not shown) [JX21125] | 6 ± 0.4 nM | 4.9 ± 0.7 nM | 136 | 815 ± 48 nM | 207 | 1240 ± 185 nM
Cl.O=C(NO)c1cnc(N2CCC3(CCNC3)C2)nc1 (stereo not shown) [JX21131] | 40.4 ± 9.2 nM | 20.7 ± 2.4 nM | > 248 | > 10000 nM | > 248 | > 10000 nM
Cl.O=C(NO)c1cnc(N2CCC3(CCN(Cc4ccc5ncccc5c4)C3)C2)nc1 (stereo not shown) [JX21137] | 7 ± 0.4 nM | 9.6 ± 0.5 nM | 179 | 1250 ± 190 nM | 254 | 1770 ± 28 nM
Cl.O=C(NO)c1cnc(N2CCC3(CCN(Cc4ccc5ccccc5n4)C3)C2)nc1 (stereo not shown) [JX21143] | 7.9 ± 1 nM | 3.1 ± 0.3 nM | 49 | 388 ± 58 nM | 368 | 2910 ± 655 nM
O=C(NO)c1cnc(N2CCN(S(=O)(=O)c3ccc4ccccc4c3)CC2)nc1 [R306465, reference compound] | 23 nM |  | 38 | 877 nM | 287 | 6600 nM
